Laboratory results published in patent publication US20240382401A1, “COMPOSITIONS” (JVS Products Limited, priority 2020, published 2024).

Tested on: tissue engineered human skin model (EpiDerm™)
Test: In vitro skin irritation test, EpiDerm (EPI-200-SIT), MTT assay
Assay type: cell-based
Details: 60 minutes exposure, relative to negative control, irritant if below 50%
Procedure: A 24 tissue insert EpiDerm™ skin irritation kit was purchased from MatTek In Vitro Life Science Laboratories, Slovakia (EPI-200-SIT). On receipt of the kit, the tissues were visually assessed for integrity and conditioned by transferring into sterile 6 well plates, adding 0.9 ml medium and incubating for 60 minutes at 37° C., 5% CO2, 95% RH. After 60 minutes, the tissues were removed, placed in fresh medium and further incubated for 18 hours.
To test for irritancy potential, 30 μl of liquid formulation, plus positive and negative control or 25 mg semisolid (gel/moisturiser) were applied to surface of each test tissue insert. After dosing the inserts were incubated for 35 minutes (37° C., 5% CO2, 95% RH). […]
Once extraction was complete, 200 μl samples from each tissue were added to a 96 well plate in duplicate for the MTT assay of cell viability, and 200 μl isopropanol to 4 wells as blanks. The optical density of each well was read using a spectrophotometric plate reader at 570 nm without using a reference filter.
The mean OD (optical density) from the blank wells was subtracted from the OD of each well. The mean OD from each duplicate was then obtained and the individual relative tissue viability for each tissue treated with a test substance (TS), the positive control (PC) and the negative control (NC) calculated according to the following formulas: […]

Question: How did the “Mean RV % (relative viability)” value turn out when `CCCCCCCCCCCCOS(=O)(=O)[O-].[Na+]` [5% SDS] was run?
Answer: The value was 9.0%.
